# Experimental data published in ChEMBL document CHEMBL5465560, “Selectivity Literature for EUbOPEN Chemogenomic Library” (2024).
# Key:
# [1] = tested on: Tyrosine-protein kinase ABL1 (Homo sapiens), P00519 [Q252H]; conditions: at 10 µM
# [2] = biological target: Dual specificity mitogen-activated protein kinase kinase 1 (Homo sapiens, UniProt Q02750); assay: Selectivity interaction (Kinase panel (DSF assay)) EUB0001558a MAP2K1
# [3] = biological target: Serine/threonine-protein kinase PAK 6 (Homo sapiens) (UniProt Q9NQU5); assay: Selectivity interaction (KinomeScan (DiscoverX)) EUB0000092b PAK6; conditions: at 10 µM
# [4] = biological target: CDK3/cyclin E (Homo sapiens) (UniProt P24864+O96020+Q00526); assay: Selectivity interaction (Upstate Kinase Profiler service (Millipore)) EUB0000056c CDK3; type: protein-complex assay; conditions: at 1 µM
# Chain of CDK3/cyclin E (Homo sapiens) (O96020 whole entry, looked up): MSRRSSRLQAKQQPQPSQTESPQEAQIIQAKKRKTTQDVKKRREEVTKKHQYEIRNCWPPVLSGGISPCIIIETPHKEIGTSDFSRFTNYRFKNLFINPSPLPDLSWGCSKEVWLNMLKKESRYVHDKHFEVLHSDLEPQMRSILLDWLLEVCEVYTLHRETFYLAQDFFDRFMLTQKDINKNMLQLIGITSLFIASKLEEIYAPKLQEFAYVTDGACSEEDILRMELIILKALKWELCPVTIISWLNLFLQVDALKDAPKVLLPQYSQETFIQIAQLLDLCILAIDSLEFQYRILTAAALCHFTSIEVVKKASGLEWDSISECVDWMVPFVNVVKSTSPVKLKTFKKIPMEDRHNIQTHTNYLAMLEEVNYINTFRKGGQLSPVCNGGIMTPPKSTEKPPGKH
# Chain of CDK3/cyclin E (Homo sapiens) (P24864 whole entry, looked up): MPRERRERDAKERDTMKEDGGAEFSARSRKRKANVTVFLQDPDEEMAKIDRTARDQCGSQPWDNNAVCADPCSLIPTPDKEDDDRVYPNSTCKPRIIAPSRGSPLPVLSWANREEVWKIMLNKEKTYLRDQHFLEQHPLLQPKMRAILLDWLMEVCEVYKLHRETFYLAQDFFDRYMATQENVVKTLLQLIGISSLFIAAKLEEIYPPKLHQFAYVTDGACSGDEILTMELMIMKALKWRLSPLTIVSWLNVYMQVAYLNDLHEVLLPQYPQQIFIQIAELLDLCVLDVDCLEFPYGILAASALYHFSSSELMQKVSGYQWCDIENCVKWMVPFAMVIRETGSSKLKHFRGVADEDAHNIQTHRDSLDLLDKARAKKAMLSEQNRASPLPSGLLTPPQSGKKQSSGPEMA
# Chain of CDK3/cyclin E (Homo sapiens) (Q00526 whole entry, looked up): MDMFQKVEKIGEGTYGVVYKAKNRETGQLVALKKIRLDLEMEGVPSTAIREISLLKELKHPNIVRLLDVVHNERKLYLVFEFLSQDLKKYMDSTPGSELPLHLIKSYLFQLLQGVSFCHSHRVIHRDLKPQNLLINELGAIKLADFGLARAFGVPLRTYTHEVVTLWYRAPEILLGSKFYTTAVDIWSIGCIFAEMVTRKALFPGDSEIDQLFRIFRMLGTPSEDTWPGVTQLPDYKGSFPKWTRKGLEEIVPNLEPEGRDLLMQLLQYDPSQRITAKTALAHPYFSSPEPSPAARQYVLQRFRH
# [5] = biological target: T1, Beta-adrenergic receptor kinase 1 (Homo sapiens) (UniProt P25098); assay: Selectivity interaction (ProQinase) EUB0000171b ADRBK1
# T1 sequence (whole entry): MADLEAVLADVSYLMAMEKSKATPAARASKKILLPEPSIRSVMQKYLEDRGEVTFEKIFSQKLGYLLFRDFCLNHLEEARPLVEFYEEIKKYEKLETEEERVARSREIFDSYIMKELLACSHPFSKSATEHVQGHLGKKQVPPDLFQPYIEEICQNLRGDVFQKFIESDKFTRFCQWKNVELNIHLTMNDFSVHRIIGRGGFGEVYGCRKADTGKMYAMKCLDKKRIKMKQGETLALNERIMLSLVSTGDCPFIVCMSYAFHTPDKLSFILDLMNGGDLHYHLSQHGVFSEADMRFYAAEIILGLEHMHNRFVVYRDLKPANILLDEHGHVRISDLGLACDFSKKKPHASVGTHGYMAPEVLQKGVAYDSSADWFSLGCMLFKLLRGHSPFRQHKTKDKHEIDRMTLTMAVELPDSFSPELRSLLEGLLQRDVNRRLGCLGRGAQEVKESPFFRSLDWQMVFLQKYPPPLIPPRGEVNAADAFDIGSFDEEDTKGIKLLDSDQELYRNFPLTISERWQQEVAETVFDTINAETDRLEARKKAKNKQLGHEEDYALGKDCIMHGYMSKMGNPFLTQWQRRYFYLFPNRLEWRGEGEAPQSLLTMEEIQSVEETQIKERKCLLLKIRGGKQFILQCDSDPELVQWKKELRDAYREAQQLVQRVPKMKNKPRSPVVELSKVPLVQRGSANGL
# [6] = biological target: Tyrosine-protein kinase Blk (Homo sapiens) (UniProt P51451); assay: Selectivity interaction (ProQinase) EUB0000171b BLK
# Chain of Tyrosine-protein kinase Blk (Homo sapiens) (P51451 2-505 limits assumed): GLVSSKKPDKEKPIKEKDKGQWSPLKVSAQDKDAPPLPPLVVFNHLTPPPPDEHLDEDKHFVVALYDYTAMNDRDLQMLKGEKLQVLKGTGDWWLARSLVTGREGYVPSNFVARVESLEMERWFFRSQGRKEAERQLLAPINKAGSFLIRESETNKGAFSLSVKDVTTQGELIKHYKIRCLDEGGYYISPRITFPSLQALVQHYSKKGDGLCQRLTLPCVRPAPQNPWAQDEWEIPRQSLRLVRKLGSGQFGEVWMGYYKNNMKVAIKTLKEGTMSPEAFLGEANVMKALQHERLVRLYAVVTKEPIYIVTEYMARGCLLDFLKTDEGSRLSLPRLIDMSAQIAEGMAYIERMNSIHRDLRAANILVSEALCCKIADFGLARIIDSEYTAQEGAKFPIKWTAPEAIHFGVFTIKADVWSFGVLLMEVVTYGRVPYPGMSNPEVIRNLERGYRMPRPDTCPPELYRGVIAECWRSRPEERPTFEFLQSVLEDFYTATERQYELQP
# CREB-binding protein = CREB-binding protein (Homo sapiens, UniProt Q92793); assay: Selectivity interaction (Bromodomain panel (DSF asssay)) EUB0000270b CREBBP
# Chain of CREB-binding protein (Q92793 2-2442 limits assumed): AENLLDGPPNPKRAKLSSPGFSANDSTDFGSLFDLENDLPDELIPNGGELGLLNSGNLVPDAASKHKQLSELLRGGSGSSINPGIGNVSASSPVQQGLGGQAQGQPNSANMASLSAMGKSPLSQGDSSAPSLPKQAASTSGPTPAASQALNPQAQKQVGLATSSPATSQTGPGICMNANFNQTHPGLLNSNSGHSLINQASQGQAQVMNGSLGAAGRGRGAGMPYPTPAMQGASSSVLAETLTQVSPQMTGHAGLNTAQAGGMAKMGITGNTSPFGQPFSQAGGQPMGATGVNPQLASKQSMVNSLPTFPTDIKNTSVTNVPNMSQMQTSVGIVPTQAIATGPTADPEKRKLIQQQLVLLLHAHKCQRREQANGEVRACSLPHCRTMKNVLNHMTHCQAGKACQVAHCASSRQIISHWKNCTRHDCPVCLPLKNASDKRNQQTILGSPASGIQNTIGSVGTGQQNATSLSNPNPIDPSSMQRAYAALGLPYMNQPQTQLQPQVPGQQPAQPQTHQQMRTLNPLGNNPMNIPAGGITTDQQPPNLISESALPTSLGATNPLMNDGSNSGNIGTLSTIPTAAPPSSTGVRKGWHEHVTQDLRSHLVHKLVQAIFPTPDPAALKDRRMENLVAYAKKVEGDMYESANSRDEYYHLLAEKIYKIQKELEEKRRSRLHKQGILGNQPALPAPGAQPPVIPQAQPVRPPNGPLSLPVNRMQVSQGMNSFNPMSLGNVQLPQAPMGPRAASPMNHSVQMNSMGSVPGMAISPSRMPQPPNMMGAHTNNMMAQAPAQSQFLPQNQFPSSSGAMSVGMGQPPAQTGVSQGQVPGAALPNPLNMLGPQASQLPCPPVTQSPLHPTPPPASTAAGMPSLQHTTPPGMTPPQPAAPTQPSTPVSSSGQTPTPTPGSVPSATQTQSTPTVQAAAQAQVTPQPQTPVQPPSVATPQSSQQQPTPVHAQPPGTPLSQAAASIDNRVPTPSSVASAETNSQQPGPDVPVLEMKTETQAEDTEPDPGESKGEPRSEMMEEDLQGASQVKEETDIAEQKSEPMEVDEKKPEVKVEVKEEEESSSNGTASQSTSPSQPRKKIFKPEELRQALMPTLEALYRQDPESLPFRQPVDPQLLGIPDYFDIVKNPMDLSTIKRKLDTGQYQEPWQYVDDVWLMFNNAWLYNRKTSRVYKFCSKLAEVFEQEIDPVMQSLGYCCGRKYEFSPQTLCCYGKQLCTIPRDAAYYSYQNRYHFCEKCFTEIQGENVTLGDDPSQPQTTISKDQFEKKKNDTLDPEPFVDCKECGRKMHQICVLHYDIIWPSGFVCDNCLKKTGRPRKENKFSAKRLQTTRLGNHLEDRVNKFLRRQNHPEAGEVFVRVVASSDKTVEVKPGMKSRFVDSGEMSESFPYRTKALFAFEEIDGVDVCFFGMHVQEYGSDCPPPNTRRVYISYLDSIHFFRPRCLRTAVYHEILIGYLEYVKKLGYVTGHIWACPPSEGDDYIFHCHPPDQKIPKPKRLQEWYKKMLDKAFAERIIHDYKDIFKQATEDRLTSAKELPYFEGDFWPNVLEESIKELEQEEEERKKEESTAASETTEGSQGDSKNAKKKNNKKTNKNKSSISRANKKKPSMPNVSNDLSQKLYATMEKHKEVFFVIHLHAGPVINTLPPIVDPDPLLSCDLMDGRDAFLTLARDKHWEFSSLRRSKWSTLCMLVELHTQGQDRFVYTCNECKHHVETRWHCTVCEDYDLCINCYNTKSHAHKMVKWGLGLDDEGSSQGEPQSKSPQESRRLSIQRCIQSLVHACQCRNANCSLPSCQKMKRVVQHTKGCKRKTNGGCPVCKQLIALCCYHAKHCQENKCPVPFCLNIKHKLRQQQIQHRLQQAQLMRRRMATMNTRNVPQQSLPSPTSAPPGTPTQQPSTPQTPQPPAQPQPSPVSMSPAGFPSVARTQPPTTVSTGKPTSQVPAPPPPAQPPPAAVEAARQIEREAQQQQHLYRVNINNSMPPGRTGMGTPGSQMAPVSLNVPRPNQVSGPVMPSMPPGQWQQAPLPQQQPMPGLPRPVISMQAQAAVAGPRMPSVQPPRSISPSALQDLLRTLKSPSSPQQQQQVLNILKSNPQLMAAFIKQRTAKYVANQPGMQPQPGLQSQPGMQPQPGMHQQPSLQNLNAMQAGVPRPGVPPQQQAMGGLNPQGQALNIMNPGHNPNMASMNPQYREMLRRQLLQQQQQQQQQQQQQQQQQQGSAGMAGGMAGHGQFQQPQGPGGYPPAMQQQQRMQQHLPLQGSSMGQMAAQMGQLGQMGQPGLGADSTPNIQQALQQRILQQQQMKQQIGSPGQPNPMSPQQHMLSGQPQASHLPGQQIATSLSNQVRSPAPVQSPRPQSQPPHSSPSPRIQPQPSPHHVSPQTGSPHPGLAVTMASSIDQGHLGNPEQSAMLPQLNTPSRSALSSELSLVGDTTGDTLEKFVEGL
# Focal adhesion kinase 1 = Focal adhesion kinase 1 (Homo sapiens, UniProt Q05397)
# [7] = biological target: T2, Serine/threonine-protein kinase Nek1 (Homo sapiens) (UniProt Q96PY6); assay: Selectivity interaction (Kinase panel (Invitrogen)) EUB0000639a NEK1; conditions: at 200 nM
# T2 sequence (whole entry): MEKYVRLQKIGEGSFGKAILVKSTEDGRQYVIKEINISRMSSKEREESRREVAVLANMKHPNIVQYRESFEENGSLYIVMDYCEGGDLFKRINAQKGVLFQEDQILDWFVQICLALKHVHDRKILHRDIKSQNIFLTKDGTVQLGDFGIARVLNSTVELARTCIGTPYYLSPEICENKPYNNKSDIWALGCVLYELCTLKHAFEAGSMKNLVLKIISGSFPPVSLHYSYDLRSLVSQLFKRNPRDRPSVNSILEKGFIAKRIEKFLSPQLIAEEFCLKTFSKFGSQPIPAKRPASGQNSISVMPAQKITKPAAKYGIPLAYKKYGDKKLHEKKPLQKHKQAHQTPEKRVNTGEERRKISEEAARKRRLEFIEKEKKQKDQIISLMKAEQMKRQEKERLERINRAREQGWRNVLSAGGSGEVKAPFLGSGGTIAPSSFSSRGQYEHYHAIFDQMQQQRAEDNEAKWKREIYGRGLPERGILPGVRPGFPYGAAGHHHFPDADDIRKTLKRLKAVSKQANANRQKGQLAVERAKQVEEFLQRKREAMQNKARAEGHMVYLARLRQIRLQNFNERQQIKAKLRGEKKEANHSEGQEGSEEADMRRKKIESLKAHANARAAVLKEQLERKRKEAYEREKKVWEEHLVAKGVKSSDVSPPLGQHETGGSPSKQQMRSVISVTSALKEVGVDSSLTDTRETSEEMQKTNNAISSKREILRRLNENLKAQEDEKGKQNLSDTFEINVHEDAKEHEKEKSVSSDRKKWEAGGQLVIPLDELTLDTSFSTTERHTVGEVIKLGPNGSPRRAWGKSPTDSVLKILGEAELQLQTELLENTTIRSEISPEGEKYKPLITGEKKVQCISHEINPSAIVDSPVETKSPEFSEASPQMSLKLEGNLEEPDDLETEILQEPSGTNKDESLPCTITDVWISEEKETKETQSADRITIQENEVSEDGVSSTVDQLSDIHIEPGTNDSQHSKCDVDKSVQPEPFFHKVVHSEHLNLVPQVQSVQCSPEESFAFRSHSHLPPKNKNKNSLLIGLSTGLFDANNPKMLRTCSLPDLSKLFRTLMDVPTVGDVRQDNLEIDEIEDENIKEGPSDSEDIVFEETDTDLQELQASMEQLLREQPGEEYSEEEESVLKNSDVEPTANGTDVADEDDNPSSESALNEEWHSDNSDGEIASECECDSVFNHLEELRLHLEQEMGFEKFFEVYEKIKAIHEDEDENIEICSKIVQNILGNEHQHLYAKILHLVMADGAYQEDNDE
# [8] = biological target: Serine/threonine-protein kinase Nek7 (Homo sapiens) (UniProt Q8TDX7); assay: Selectivity interaction (ActivX KiNativ screen (kinase selectivity in THP-1 cell lysates)) EUB0000639a NEK7; type: subcellular; conditions: lysate, at 5 µM
# Chain of Serine/threonine-protein kinase Nek7 (Homo sapiens) (Q8TDX7 whole entry, looked up): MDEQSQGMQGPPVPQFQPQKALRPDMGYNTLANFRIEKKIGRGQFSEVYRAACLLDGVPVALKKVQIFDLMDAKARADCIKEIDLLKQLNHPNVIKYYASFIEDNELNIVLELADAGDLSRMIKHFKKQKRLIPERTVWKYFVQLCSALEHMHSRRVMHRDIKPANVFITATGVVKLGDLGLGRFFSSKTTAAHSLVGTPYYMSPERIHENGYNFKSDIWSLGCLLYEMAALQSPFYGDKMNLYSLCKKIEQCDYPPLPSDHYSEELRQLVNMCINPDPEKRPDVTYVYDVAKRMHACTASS
# [9] = biological target: DNA-dependent protein kinase catalytic subunit (Homo sapiens) (UniProt P78527); assay: Selectivity interaction (ActivX KiNativ screen (kinase selectivity in THP-1 cell lysates)) EUB0000639a PRKDC; type: subcellular; conditions: lysate, at 1 µM
# Chain of Dual specificity mitogen-activated protein kinase kinase 1 (Q02750 whole entry): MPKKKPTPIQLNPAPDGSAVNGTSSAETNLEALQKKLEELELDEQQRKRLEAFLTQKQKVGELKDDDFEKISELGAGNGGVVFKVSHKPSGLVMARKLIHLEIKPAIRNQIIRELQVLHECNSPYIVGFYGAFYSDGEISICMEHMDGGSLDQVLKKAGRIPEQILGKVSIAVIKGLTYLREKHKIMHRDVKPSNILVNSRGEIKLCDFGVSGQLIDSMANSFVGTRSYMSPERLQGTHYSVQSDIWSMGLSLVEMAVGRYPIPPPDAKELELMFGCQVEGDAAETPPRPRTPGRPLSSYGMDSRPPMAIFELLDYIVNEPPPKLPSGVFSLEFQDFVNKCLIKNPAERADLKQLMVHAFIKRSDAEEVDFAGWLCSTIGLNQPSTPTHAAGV
compound,measurement,setting,value
CCN(CC)CCCCNc1ncc2cc(-c3cc(OC)cc(OC)c3)c(NC(=O)NC(C)(C)C)nc2n1,% of control,[1],100%
CC(C)(O)[C@H](F)CN1Cc2cc(NC(=O)c3cnn4cccnc34)c(N3CCOCC3)cc2C1=O,dTM,[2],1.3 K
CCC(=O)N1CCN(c2ccc(-n3c(=O)ccc4cnc5ccc(-c6cnc7ccccc7c6)cc5c43)cc2C(F)(F)F)CC1,% of control,[3],77%
Cc1ccc(-c2ccc3c(ccc4sc5c(c43)NC[C@@H](C)NC5=O)n2)cn1,% of inhibition,[4],5%
C=CC(=O)Nc1cccc(C(=O)Nc2ccc(Nc3cc(-c4[nH]c(SC)nc4C)ccn3)cc2)c1,% of control,[5]; at 1 µM,101%
same,% of control,[5]; at 5 µM,88%
same,% of control,[6]; at 1 µM,77%
same,% of control,[6]; at 5 µM,81%
Cc1cc(CN)cc(C)c1-c1ncn(C)c1-c1cncn1C,dTM,CREB-binding protein,-1.89 K
CCc1cccc(CC)c1NC(=O)c1nn(C)c2c1CCc1cnc(Nc3ccc(C(=O)NC4CCN(C)CC4)cc3OC(F)(F)F)nc1-2,IC50,Focal adhesion kinase 1,> 10 µM
CC[C@@H]1[C@H](F)C(=O)N[C@@H]1COc1nccc2cc(C(N)=O)c(OC)cc12 [ZIMLOVISERTIB],% of inhibition,[7],10.2%
same,% of inhibition,[8],-1.4%
same,% of inhibition,[9],7.2%
